Assay results taken from PubChem BioAssay AID248 (DTP/NCI, 2004).
Several values for one entry are separate records, joined by “and”; a condition that tells them apart may be missing. Identical values can stand only once. Inconclusive results and toxic doses are left out. Cut-off read from the data, not from the text of the source: active = T/C of 150% or more; inactive = T/C below 125%.

System: L1210 leukemia ip in BDF1 mice, survival T/C
Assay: NCI In Vivo Anticancer Drug Screen. Data for tumor model L1210 Leukemia (intraperitoneal) in B6D2F1 (BDF1) mice
Conditions: endpoint: mean survival time, higher = longer survival
Outline: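 Antitumor effect is assessed in tumor-bearing animals. Survival in the compound arm is compared with a vehicle-dosed control arm and expressed as their quotient.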

[1] = dose: 100.0 mg/kg/injection, schedule: Q04DX003 (ip), vehicle: saline
[2] = dose: 200.0 mg/kg/injection, schedule: Q04DX003 (ip), vehicle: saline
[3] = dose: 100.0 mg/kg/injection, schedule: Q01DX001 (ip), vehicle: saline
[4] = dose: 200.0 mg/kg/injection, schedule: Q01DX001 (ip), vehicle: saline
[5] = dose: 400.0 mg/kg/injection, schedule: Q01DX001 (ip), vehicle: saline
[6] = dose: 100.0 mg/kg/injection, schedule: Q01DX001 (ip), vehicle: carboxymethylcellulose (CMC)
[7] = dose: 200.0 mg/kg/injection, schedule: Q01DX001 (ip), vehicle: carboxymethylcellulose (CMC)
[8] = dose: 50.0 mg/kg/injection, schedule: Q01DX001 (ip), vehicle: saline
[9] = dose: 100.0 mg/kg/injection, schedule: Q01DX009 (ip), vehicle: Klucel (hydroxypropylcellulose) (HPC)
[10] = dose: 100.0 mg/kg/injection, schedule: Q04DX003 (ip), vehicle: Klucel (hydroxypropylcellulose) (HPC)
[11] = dose: 200.0 mg/kg/injection, schedule: Q01DX009 (ip), vehicle: Klucel (hydroxypropylcellulose) (HPC)
[12] = dose: 100.0 mg/kg/injection, schedule: Q04DX003 (ip), vehicle: saline with Tween-80
[13] = dose: 200.0 mg/kg/injection, schedule: Q04DX003 (ip), vehicle: saline with Tween-80
[14] = dose: 400.0 mg/kg/injection, schedule: Q04DX003 (ip), vehicle: saline with Tween-80
[15] = dose: 100.0 mg/kg/injection, schedule: Q04DX002 (ip), vehicle: Klucel (hydroxypropylcellulose) (HPC)
[16] = dose: 200.0 mg/kg/injection, schedule: Q04DX002 (ip), vehicle: Klucel (hydroxypropylcellulose) (HPC)

Measured: T/C

CC1=C(C)C(=O)C(CC2=C(C)C(=O)C(C)=C(C)C2=O)=C(C)C1=O
inactive: dose: 100.0 mg/kg/injection, schedule: Q01DX005 (ip), vehicle: saline with Tween-80 101 % of control | dose: 100.0 mg/kg/injection, schedule: Q01DX009 (ip), vehicle: saline with Tween-80 96 % of control | dose: 200.0 mg/kg/injection, schedule: Q01DX005 (ip), vehicle: saline with Tween-80 96 % of control | dose: 200.0 mg/kg/injection, schedule: Q01DX009 (ip), vehicle: saline with Tween-80 100 % of control | dose: 400.0 mg/kg/injection, schedule: Q01DX005 (ip), vehicle: saline with Tween-80 104 % of control | dose: 400.0 mg/kg/injection, schedule: Q01DX009 (ip), vehicle: saline with Tween-80 96 % of control

CCCC[n+]1cnc(N)c2[nH]cnc21
inactive: dose: 50.0 mg/kg/injection, schedule: Q04DX003 (ip), vehicle: saline 93 % of control | [1] 91 % of control | [2] 100 % of control

NC(=O)NNC1=CC(=O)CCO1
inactive: [3] 107 % of control | [4] 106 % of control | [5] 104 % of control

CCOC(=O)OCc1ccco1
inactive: [6] 94 % of control | dose: 100.0 mg/kg/injection, schedule: Q01DX009 (ip), vehicle: carboxymethylcellulose (CMC) 101 % of control and 103 % of control | dose: 100.0 mg/kg/injection, schedule: Q04DX002 (ip), vehicle: carboxymethylcellulose (CMC) 98 % of control and 100 % of control | dose: 100.0 mg/kg/injection, schedule: Q04DX003 (ip), vehicle: carboxymethylcellulose (CMC) 102 % of control | [7] 89 % of control | dose: 200.0 mg/kg/injection, schedule: Q01DX009 (ip), vehicle: carboxymethylcellulose (CMC) 97 % of control and 109 % of control | dose: 200.0 mg/kg/injection, schedule: Q04DX002 (ip), vehicle: carboxymethylcellulose (CMC) 98 % of control and 101 % of control | dose: 200.0 mg/kg/injection, schedule: Q04DX003 (ip), vehicle: carboxymethylcellulose (CMC) 96 % of control | dose: 400.0 mg/kg/injection, schedule: Q01DX001 (ip), vehicle: carboxymethylcellulose (CMC) 110 % of control | dose: 400.0 mg/kg/injection, schedule: Q04DX002 (ip), vehicle: carboxymethylcellulose (CMC) 103 % of control and 106 % of control | dose: 400.0 mg/kg/injection, schedule: Q04DX003 (ip), vehicle: carboxymethylcellulose (CMC) 112 % of control

CN=C(NC)NCc1ccccc1
inactive: [8] 95 % of control | [3] 97 % of control

O=C(O)c1cccnc1
inactive: dose: 25.0 mg/kg/injection, schedule: Q01DX009 (ip), vehicle: Klucel (hydroxypropylcellulose) (HPC) 103 % of control | dose: 25.0 mg/kg/injection, schedule: Q04DX003 (ip), vehicle: Klucel (hydroxypropylcellulose) (HPC) 91 % of control | dose: 50.0 mg/kg/injection, schedule: Q01DX009 (ip), vehicle: Klucel (hydroxypropylcellulose) (HPC) 100 % of control | dose: 50.0 mg/kg/injection, schedule: Q04DX003 (ip), vehicle: Klucel (hydroxypropylcellulose) (HPC) 89 % of control | [9] 96 % of control | [10] 100 % of control | [11] 95 % of control | dose: 200.0 mg/kg/injection, schedule: Q04DX003 (ip), vehicle: Klucel (hydroxypropylcellulose) (HPC) 91 % of control | dose: 400.0 mg/kg/injection, schedule: Q04DX003 (ip), vehicle: Klucel (hydroxypropylcellulose) (HPC) 107 % of control

NC(CC(=O)NCCc1ccccc1)C(=O)NCCc1ccccc1 (configuration not stated)
inactive: dose: 75.0 mg/kg/injection, schedule: Q01DX001 (ip), vehicle: other 102 % of control | dose: 150.0 mg/kg/injection, schedule: Q01DX001 (ip), vehicle: other 97 % of control | dose: 300.0 mg/kg/injection, schedule: Q01DX001 (ip), vehicle: other 97 % of control

CC(=O)OCc1cccnc1
inactive: [12] 95 % of control | [13] 94 % of control | [14] 97 % of control

O=C(O)c1cccc(N2C(=O)C=CC2=O)c1
inactive: dose: 25.0 mg/kg/injection, schedule: Q04DX002 (ip), vehicle: Klucel (hydroxypropylcellulose) (HPC) 101 % of control | dose: 50.0 mg/kg/injection, schedule: Q04DX002 (ip), vehicle: Klucel (hydroxypropylcellulose) (HPC) 101 % of control

CC(O)C1CCN(Cc2ccccc2)CC1 (configuration not stated)
inactive: dose: 50.0 mg/kg/injection, schedule: Q01DX001 (ip), vehicle: carboxymethylcellulose (CMC) 101 % of control | [6] 108 % of control | [7] 106 % of control

O=[N+]([O-])c1ccc(N/N=C\c2ccc3ccccc3n2)cc1
inactive: dose: 100.0 mg/kg/injection, schedule: Q01DX009 (ip), vehicle: saline 97 % of control | dose: 200.0 mg/kg/injection, schedule: Q01DX009 (ip), vehicle: saline 104 % of control | dose: 400.0 mg/kg/injection, schedule: Q01DX009 (ip), vehicle: saline 91 % of control

CC(C)=CCCC(=O)Oc1ccccc1C(=O)O
inactive: [1] 99 % of control | [2] 91 % of control | dose: 400.0 mg/kg/injection, schedule: Q04DX003 (ip), vehicle: saline 93 % of control

O=C(Nc1cccc(F)c1)N(CC(O)c1ccccc1)C1CCCCC1 (configuration not stated)
inactive: [9] 114 % of control | [11] 100 % of control | dose: 400.0 mg/kg/injection, schedule: Q01DX009 (ip), vehicle: Klucel (hydroxypropylcellulose) (HPC) 97 % of control

COC1=NS(=O)(=O)C2CCCC/C=C\C2O1 (configuration not stated)
inactive: dose: 150.0 mg/kg/injection, schedule: Q04DX002 (ip), vehicle: Klucel (hydroxypropylcellulose) (HPC) 110 % of control | dose: 300.0 mg/kg/injection, schedule: Q04DX002 (ip), vehicle: Klucel (hydroxypropylcellulose) (HPC) 103 % of control

N#CCOc1cc(Cl)c(Cl)cc1Cl
inactive: [15] 107 % of control | [16] 97 % of control

Cc1nc(N(C)CC(=O)O)ncc1C(=O)O
inactive: [15] 91 % of control | [16] 91 % of control | dose: 400.0 mg/kg/injection, schedule: Q04DX002 (ip), vehicle: Klucel (hydroxypropylcellulose) (HPC) 94 % of control

O=C1OC(=O)C2C3CC(C12)C1C2C=CC(C2)C31 (configuration not stated)
inactive: [12] 91 % of control | [13] 95 % of control | [14] 103 % of control

CCCCCCCCCCCCN1CCSCC1
inactive: dose: 25.0 mg/kg/injection, schedule: Q04DX003 (ip), vehicle: saline with Tween-80 95 % of control and 105 % of control | dose: 50.0 mg/kg/injection, schedule: Q04DX003 (ip), vehicle: saline with Tween-80 104 % of control and 90 % of control | dose: 100.0 mg/kg/injection, schedule: Q01DX001 (ip), vehicle: saline with Tween-80 105 % of control and 117 % of control | dose: 100.0 mg/kg/injection, schedule: Q04DX002 (ip), vehicle: saline with Tween-80 95 % of control and 113 % of control | dose: 200.0 mg/kg/injection, schedule: Q01DX001 (ip), vehicle: saline with Tween-80 94 % of control and 117 % of control | dose: 200.0 mg/kg/injection, schedule: Q04DX002 (ip), vehicle: saline with Tween-80 95 % of control and 113 % of control | [13] 93 % of control and 104 % of control and 110 % of control | dose: 400.0 mg/kg/injection, schedule: Q01DX001 (ip), vehicle: saline with Tween-80 97 % of control and 104 % of control | dose: 400.0 mg/kg/injection, schedule: Q04DX002 (ip), vehicle: saline with Tween-80 97 % of control and 98 % of control | [14] 108 % of control and 90 % of control

CCCNC(=O)c1ccc(N)cc1
inactive: [3] 104 % of control | [4] 97 % of control | [5] 97 % of control

COc1ccc(C(C#N)N(C)C)cc1OC (configuration not stated)
inactive: [8] 100 % of control | [3] 100 % of control

O=C(CCN1CC1)OC1CCCC1
inactive: dose: 0.25 mg/kg/injection, schedule: Q01DX009 (ip), vehicle: Klucel (hydroxypropylcellulose) (HPC) 91 % of control | dose: 0.5 mg/kg/injection, schedule: Q01DX009 (ip), vehicle: Klucel (hydroxypropylcellulose) (HPC) 97 % of control | dose: 1.0 mg/kg/injection, schedule: Q01DX009 (ip), vehicle: Klucel (hydroxypropylcellulose) (HPC) 103 % of control | dose: 2.5 mg/kg/injection, schedule: Q01DX009 (ip), vehicle: Klucel (hydroxypropylcellulose) (HPC) 100 % of control | dose: 20.0 mg/kg/injection, schedule: Q04DX003 (ip), vehicle: Klucel (hydroxypropylcellulose) (HPC) 98 % of control | dose: 40.0 mg/kg/injection, schedule: Q04DX003 (ip), vehicle: Klucel (hydroxypropylcellulose) (HPC) 97 % of control | dose: 80.0 mg/kg/injection, schedule: Q04DX003 (ip), vehicle: Klucel (hydroxypropylcellulose) (HPC) 97 % of control | [10] 102 % of control
